Measurements from patent publication US20030083558A1, “Method of examining and diagnosing skin health” (priority 2001, published 2003).

Legend:
MMP-1 = test: Study 2: MMP-1 in ISF by ELISA, effect of supplementation; type: in vivo, human
Procedure: (§1) The laser made four pores at each collection site.
(§2) The other skin analytes were measured in Study 2 using standard ELISA kits: MMP-1 (ELISA Cat # QIA55, Oncogene Research Products, Cambridge Mass.); Total IgE (ELISA Cat # RE59061, IBL, Hamburg, Germany distributed by KMI Diagnostics); Non Extraction IGF-1 (ELISA Cat # DSL-10-2800, Diagnostics Systems Laboratories, Webster Tex.); IL-1 RA (ELISA Cat # DRA00, R&D Systems, Minneapolis, Minn.); IL-1A (ELISA Cat # EH2IL1A, Pierce/Endogen, Rockford, Ill.).

IgE = test: Study 2: IgE in ISF by ELISA, effect of supplementation; type: in vivo, human
Procedure: as §1, §2

IL-1A = test: Study 2: IL-1A in ISF by ELISA, effect of supplementation; type: in vivo, human
Procedure: as §1, §2

IL-1 RA = test: Study 2: IL-1 RA in ISF by ELISA, effect of supplementation; type: in vivo, human
Procedure: as §1, §2

[1] = parameters: species or system human; conditions: in vivo
Source text: The studies included non-smoking, female subjects of good health over the age of 35 years and under the age 55 years with skin type of III or less by the Fitzpatrick Skin classification. […] Acceptable subjects were chronologically enrolled in the study following a randomization code describing what treatment would be applied to which dorsal forearm. […] The subject applied a blinded emulsion designated by a letter to one dorsal forearm and an alternative emulsion with a different designation to the opposite arm, twice per day, for three weeks. […] ISF was extracted from the dorsal forearm, volar upper arm, and serum at one week (“Week 2”) and three weeks after dosing (“Week 4”) and two weeks after the cessation of dosing (“Week 6”).
ISF was extracted from both the treatment site (dorsal forearm) as well as an adjacent, untreated site volar upper arm) following one week of therapy and three weeks of therapy. Subjects ended treatment at this point and returned for a final extraction two weeks later.
The ISF collection period lasted between three and six hours, typically four hours.

SMILES: O=C1O[C@H]([C@@H](O)CO)C(O)=C1O [Vitamin C]
- Effect of vitamin C supplement on concentration of MMP-1 in ISF (MMP-1): significantly increased
- MMP-1 (log), Sun-exposed, Supplement Yes, MEAN (MMP-1; sun-exposed ISF): 0.64
- MMP-1 (log), Sun-protected, Supplement Yes, MEAN (MMP-1; sun-protected ISF): 0.91
- Effect of vitamin C supplement on concentration of IgE in ISF (IgE): significantly increased
- Effect of vitamin C supplement on concentration of IL-1A in ISF (IL-1A): significantly increased
- Effect of vitamin C supplement on concentration of IL-1 RA in ISF (IL-1 RA): significantly increased
- Influence of topical application on levels at an adjacent, untreated site or the serum [1]: does not influence
- Level at application site two weeks after ending therapy (week six) [1]: decreased to approximate baseline values
- Response of serum level to topical therapy [1]: did not respond
